Measured values published in patent publication US20170226121A1, “MODULATORS OF VIRUS ASSEMBLY AS ANTIVIRAL AGENTS” (Indiana University Research and Technology Corporation, priority 2011, published 2017).
Where “and” joins values, the source holds several entries; their conditions need not be identical. Identical values can stand only once. Like-named read-outs stand apart in the source and are kept apart here.

Legend:
[1] = tested on: HBV production in HepAD38 (AD38) cells; test: Antiviral activity, inducible HBV expression system, AD38 cells; format: cell-based, hepatitis B virus; conditions: for EC90: suppression of HBV production by 90%
Description: Antiviral activity was measured using an inducible HBV expression system, AD38 cells. […] Initial experiments tested the activity of 10 μM HAP (percentage viral assembly at 24 hour). For active molecules, effective concentrations were determined for suppression of HBV production by 50% and by 90%; this value is reported in μM.

in vitro = conditions: human
Description: (§1) Antiviral activity was measured using an inducible HBV expression system, AD38 cells. (Ladner, S. K. et al., Antimicrob Agents Chemother 41, 1715-20 (1997)). Initial experiments tested the activity of 10 μM HAP (percentage viral assembly at 24 hour). For active molecules, effective concentrations were determined for suppression of HBV production by 50% and by 90%; this value is reported in μM. Compound toxicity was tested in the parent cell line, HepG2. […] All of these experiments were performed blind, in the laboratory of Raymond Schinazi (Emory University).

HepG2 = test: in vitro
Description: as §1

[2] = biological target: labeled HBV core protein dimer, Cp150Bo (Hepatitis B virus genotype D subtype adw, UniProt P03147, C107A/C48A/C61A/R150C); test: Fluorescence quenching assay of HBV assembly; format: biochemical; conditions: single time point 24 hr after assembly initiated with NaCl, about 30±15% assembly without stimulation
Sequence of labeled HBV core protein dimer, Cp150Bo (P03147 1-150 C48A/C61A/C107A/R150C): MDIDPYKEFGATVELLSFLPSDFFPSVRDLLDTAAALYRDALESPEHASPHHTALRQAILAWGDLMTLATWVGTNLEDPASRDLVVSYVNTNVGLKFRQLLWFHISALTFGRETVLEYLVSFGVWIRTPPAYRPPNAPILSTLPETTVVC

[3] = suppression of HBV production by 50%, read-out: HepAD38 EC50
[4] = value in parentheses in CC50 cell

SMILES: Nc1ccn([C@@H]2CS[C@H](CO)O2)c(=O)n1 [Compound 3TC, lamivudine, reference compound]
- inhibition at 10 µM ([1]; Hepatitis B virus, HePAD38, compound at 10 μM): 98.6%
- EC50 ([1]; Hepatitis B virus, HePAD38, suppression of HBV production by 50%, read-out: HepAD38 EC50): 60 nM
- EC90 ([1]; Hepatitis B virus, HePAD38): 200 nM
- Δ-Ct-HBV ([1]; compound at 10 μM): 6.17
- CC50 (in vitro): > 100000 nM
- (YI) ratio of CC50/EC50, therapeutic index (HepG2): > 1000

SMILES: C#CCOCC1(COCC#C)COC2(CCN(CC3=C(C(=O)OC)C(c4ccc(F)cc4Cl)N=C(c4ccccn4)N3)CC2)OC1 (stereo not shown) [Compound B67]
- Assembly [2]: 84%

SMILES: COC(=O)C1=C(CNCCOCCOCCN=[N+]=[N-])NC(c2ccccn2)=NC1c1ccc(F)cc1Cl (stereo not shown) [Compound B68]
- Assembly [2]: 49%

SMILES: COC(=O)C1=C(CN2CCC3=NN(C)C(=O)C3C2)NC(c2ccccn2)=NC1c1ccc(F)cc1Cl (stereo not shown) [Compound B69]
- Assembly [2]: 54%

SMILES: C#CCNC(=O)CCCC(=O)N1CCN(CC2=C(C(=O)OC)C(c3ccc(F)cc3Cl)N=C(c3ccccn3)N2)CC1 (stereo not shown) [Compound B71]
- Assembly [2]: 133%

SMILES: COC(=O)C1=C(CN2CCN(CCOCCN=[N+]=[N-])CC2)NC(c2ccccn2)=NC1c1ccc(F)cc1Cl (stereo not shown) [Compound B72]
- Assembly [2]: 29%

SMILES: COC(=O)C1=C(CN2CCN(CCOCCOCCN=[N+]=[N-])CC2)NC(c2ccccn2)=NC1c1ccc(F)cc1Cl (stereo not shown) [Compound B74]
- Assembly [2]: 21%

SMILES: C#CCCCCC(=O)N1CCN(CC2=C(C(=O)OC)C(c3ccc(F)cc3Cl)N=C(c3ccccn3)N2)CC1 (stereo not shown) [Compound B75]
- Assembly [2]: 134%

SMILES: COC(=O)C1=C(CN2CCOCC2)NC(c2ccncc2)=NC1c1ccc(F)cc1Cl (stereo not shown) [Compound B76]
- Assembly [2]: 36%

SMILES: COC(=O)C1=C(C)NC(=S)NC1c1ccc(F)cc1Cl (stereo not shown) [Compound B77]
- Assembly [2]: 15%

SMILES: COC(=O)C1=C(C)NC(c2ccncc2)=NC1c1ccc(F)cc1Cl (stereo not shown) [Compound B-1]
- Assembly [2]: 78%

SMILES: CC1=C(C(=O)OCCN=[N+]=[N-])C(c2ccc(F)cc2Cl)N=C(c2ccncc2)N1 (stereo not shown) [Compound B-2]
- Assembly [2]: 51%

SMILES: C#CCNC(=O)C1=C(C)NC(c2ccncc2)=NC1c1ccc(F)cc1Cl (stereo not shown) [Compound B-3]
- Assembly [2]: 48%

SMILES: COC(=O)C1=C(C)NC(c2nc3ccc(OC)cc3s2)=NC1c1ccc(F)cc1Cl (stereo not shown) [Compound B-4]
- Assembly [2]: 56%

SMILES: CC1=C(C(=O)OCCC2CCC(CNS(=O)(=O)c3cccc4c(N(C)C)cccc34)C2)C(c2ccc(F)cc2Cl)N=C(c2ccncc2)N1 (stereo not shown) [Compound B-5]
- Assembly [2]: 54%

SMILES: COC(=O)C1=C(C)NC(c2ccccn2)=NC1c1ccc(F)cc1Cl (stereo not shown) [Compound B-6]
- Assembly [2]: 95%

SMILES: COC(=O)C1=C(C)NC(c2ccccc2)=NC1c1ccc(F)cc1Cl (stereo not shown) [Compound B-7]
- Assembly [2]: 96%

SMILES: C#CCOC(=O)C1=C(C)NC(c2ccccn2)=NC1c1ccc(F)cc1Cl (stereo not shown) [Compound B-12]
- Assembly [2]: 83%

SMILES: CC1=C(C(=O)NCc2cn(CCN3C(=O)c4ccccc4C3=O)nn2)C(c2ccc(F)cc2Cl)N=C(c2ccncc2)N1 (stereo not shown) [Compound B-13]
- Assembly [2]: 55%

SMILES: C#CCNC(=O)c1ccc(C2=NC(c3ccc(F)cc3Cl)C(C(=O)OC)=C(C)N2)nc1 (stereo not shown) [Compound B-15]
- Assembly [2]: 48%

SMILES: COC(=O)C1=C(C)NC(c2ccc(Br)cn2)=NC1c1ccc(F)cc1Cl (stereo not shown) [Compound B-17]
- Assembly [2]: 87%

SMILES: COC(=O)C1=C(C)NC(c2ccccn2)=NC1c1ccc(F)cc1Br (stereo not shown) [Compound B-18]
- Assembly [2]: 93%

SMILES: CCOC(=O)C1=C(c2ccccc2)NC(c2ccccn2)=NC1c1ccc(F)cc1Cl (stereo not shown) [Compound B-22]
- Assembly [2]: 77%

SMILES: CCOC(=O)C1=C(c2ccccn2)NC(c2ccccn2)=NC1c1ccc(F)cc1Cl (stereo not shown) [Compound B-23]
- Assembly [2]: 47%

SMILES: COC(=O)C1=C(C(C)C)NC(c2ccccn2)=NC1c1ccc(F)cc1Cl (stereo not shown) [Compound B-24]
- Assembly [2]: 70%

SMILES: COC(=O)C1=C(CCl)NC(c2ccccn2)=NC1c1ccc(F)cc1Cl (stereo not shown) [Compound B-25]
- Assembly [2]: 54%

SMILES: C#CCNCC1=C(C(=O)OC)C(c2ccc(F)cc2Cl)N=C(c2ccccn2)N1 (stereo not shown) [Compound B-34]
- Assembly [2]: 65%

SMILES: COC(=O)C1=C(CN2CCCC2)NC(c2ccccn2)=NC1c1ccc(F)cc1Cl (stereo not shown) [Compound B-35]
- Assembly [2]: 87%

SMILES: COC(=O)C1=C(CN2CCNCC2)NC(c2ccccn2)=NC1c1ccc(F)cc1Cl (stereo not shown) [Compound B-36]
- Assembly [2]: 92%

SMILES: COC(=O)C1=C(CN2CCN(Cc3ccc(Br)cc3)CC2)NC(c2ccccn2)=NC1c1ccc(F)cc1Cl (stereo not shown) [Compound B-54]
- Assembly [2]: 21%

SMILES: COC(=O)C1=C(CN2CCN(Cc3ccccn3)CC2)NC(c2ccccn2)=NC1c1ccc(F)cc1Cl (stereo not shown) [Compound B-55]
- Assembly [2]: 60%

SMILES: COC(=O)C1=C(CN2CCN(CC3CCCCC3)CC2)NC(c2ccccn2)=NC1c1ccc(F)cc1Cl (stereo not shown) [Compound B-56]
- Assembly [2]: 15%

SMILES: CCOC(=O)C1=C(CNC23CC4CC(CC(C4)C2)C3)NC(c2ccccn2)=NC1c1ccc(F)cc1Cl (stereo not shown) [Compound B-57]
- Assembly [2]: 49%

SMILES: CCOC(=O)C1=C(CNCC23CC4CC(CC(C4)C2)C3)NC(c2ccccn2)=NC1c1ccc(F)cc1Cl (stereo not shown) [Compound B-58]
- Assembly [2]: 42%

SMILES: C#CC(O)(C#C)C1CCN(CC2=C(C(=O)OC)C(c3ccc(F)cc3Cl)N=C(c3ccccn3)N2)CC1 (stereo not shown) [Compound B-59]
- Assembly [2]: 57%

SMILES: COC(=O)C1=C(CN2CCCCC2)NC(c2ccccn2)=NC1c1ccc(F)cc1Cl (stereo not shown) [Compound B-60]
- Assembly [2]: 60%

SMILES: COC(=O)C1=C(CN2CCOCC2)NC(c2ccccn2)=NC1c1ccc(F)cc1Cl (stereo not shown) [Compound B-061]
- EC50 ([1]; given in place of % inhibition at 10 μM, read-out: EC50 (printed in % Inhibition column)): 550 nM
- EC50 [1, 3]: 490 nM
- EC90 [1]: 1000 nM
- CC50 (HepG2): > 100000 nM
- (YI) ratio of CC50/EC50, therapeutic index (HepG2; [4]): > 200
- Assembly ([2]; listed as B61): 99%
- Assembly ([2]; listed as B-61): 51% and 80%

SMILES: COC(=O)C1=C(CN2CCN(C(=O)CCCC(=O)NCCCN=[N+]=[N-])CC2)NC(c2ccccn2)=NC1c1ccc(F)cc1Cl (stereo not shown) [Compound B-070]
- % Inhibition ([1]; compound at 10 μM): 99.88%
- Δ-Ct-HBV ([1]; compound at 10 μM): 9.77
- EC50 [1, 3]: 2300 nM
- EC90 [1]: 5900 nM
- CC50 (HepG2): 8400 nM
- (YI) ratio of CC50/EC50, therapeutic index (HepG2; [4]): 3.7
- Assembly [2]: 123%

SMILES: C#CCCCCN1CCN(CC2=C(C(=O)OC)C(c3ccc(F)cc3Cl)N=C(c3ccccn3)N2)CC1 (stereo not shown) [Compound B-073]
- % Inhibition ([1]; compound at 10 μM): 64.44%
- Δ-Ct-HBV ([1]; compound at 10 μM): 1.5
- EC50 [1, 3]: 7600 nM
- EC90 [1]: > 10000 nM
- CC50 (HepG2): 3700 nM
- (YI) ratio of CC50/EC50, therapeutic index (HepG2; [4]): 0.5
- Assembly [2]: 69%

SMILES: COC(=O)C1=C(CN2CCNC(=O)CC2)NC(c2ccccn2)=NC1c1ccc(F)cc1Cl (stereo not shown) [Compound B-120]
- % Inhibition ([1]; compound at 10 μM): 99.87%
- Δ-Ct-HBV ([1]; compound at 10 μM): 9.65
- EC50 [1, 3]: 300 nM
- EC90 [1]: 900 nM
- CC50 (HepG2): 32000 nM
- (YI) ratio of CC50/EC50, therapeutic index (HepG2; [4]): 99
- Assembly [2]: 96%

SMILES: COC(=O)C1=C(CCl)NC(c2ccccn2)=NC1c1ccc(F)cc1Cl (stereo not shown) [HAP2, reference compound]
- Assembly [2]: 99%
